Test results taken from US20020183384A1, “Methods of treating nuclear factor-kappa B mediated diseases and disorders” (priority 2001, published 2002).

test system: NF-κB mediated transcription; test: NF-κB driven β-lactamase reporter assay in ECV-304 NF-κB.βlaZ cells (AURORA CCF2 fluorescence); assay type: cell-based, human; settings: 10 μM compound; ECV-304 NF-κB.βlaZ cells stimulated with 10 ng/mL TNF-α or 100 pg/mL IL-1β, 6 hours at 37° C.; inhibition of maximum blue/green ratio
In short: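 Blue/green (460/530 nm, excitation 395 nm) CCF2 emission ratio quantified NF-κB-driven β-lactamase expression in the stably transfected endothelial-like ECV-304 clone 1E8.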

| Compound | Percent Inhibition at 10 μM [%] |
| --- | --- |
| CC(C)c1cc(C(C)C)c(CC(=O)NS(=O)(=O)Oc2c(C(C)C)cc(NC(=O)[C@@H](N)CCCCN)cc2C(C)C)c(C(C)C)c1 [Example 197, [2-(2,4,6-Triisopropyl-phenyl)-acetyl]-sulfamic acid 4-((S)-2,6-diamino-hexanoylamino)-2,6-diisopropyl-phenyl ester; compound with generic inorganic neutral component] | <10 |
| CC(C)c1cccc(C(C)C)c1OS(=O)(=O)NC(=O)NCC1(c2ccc(N(C)C)cc2)CCCC1 [Example 217, Sulfamic acid, [[[[1-[4-(dimethylamino)phenyl]cyclopenty]methyl]-amino]carbonyl]-2,6-bis(1-methylethyl)phenyl ester] | 37.08 |

same assay, conditions: Homo sapiens, ECV-304, 6 h, 10 μM compound; ECV-304 NF-κB.βlaZ cells stimulated with 10 ng/mL TNF-α or 100 pg/mL IL-1β, 6 hours at 37° C.; inhibition of maximum blue/green ratio; read-out: Percent Inhibition at 10 μM

| Compound | inhibition at 10 µM [%] |
| --- | --- |
| CC(=O)c1ccc(OS(=O)(=O)NC(=O)Cc2c(C(C)C)cc(C(C)C)cc2C(C)C)c(C(C)C)c1 [Example 191, [(2,4,6-Triisopropyl-phenyl)-acetyl]-sulfamic acid 4-acetyl-2-isopropyl-phenyl ester] | 55.7 |
| COc1cc(C(C)C)c(OS(=O)(=O)NC(=O)Cc2c(C(C)C)cc(C(C)C)cc2C(C)C)c(C(C)C)c1 [Example 192, [(2,4,6-Triisopropyl-phenyl)-acetyl]-sulfamic acid 2,6-diisopropyl-4-methoxy-phenyl ester] | 63.9 |
| CC(C)c1cc(C(C)C)c(CC(=O)NS(=O)(=O)Oc2c(Cl)cccc2Cl)c(C(C)C)c1 [Example 193, [(2,4,6-Triisopropyl-phenyl)-acetyl]-sulfamic acid 2,6-dichloro-phenyl ester] | 38.3 |
| CCOC(=O)CCNC(=O)Nc1cc(C(C)C)c(OS(=O)(=O)NC(=O)Cc2c(C(C)C)cc(C(C)C)cc2C(C)C)c(C(C)C)c1 [Example 194, 3-[3-(3,5-Diisopropyl-4-{[(2,4,6-triisopropyl-phenyl)-acetyl]-sulfamoyloxy}-phenyl)-ureido]-propionic acid ethyl ester] | 89.8 |
| CC(C)c1cc(C(C)C)c(CC(=O)NS(=O)(=O)Oc2c(C(C)C)cc(NC(=O)C(CCCCNC(=O)OC(C)(C)C)NC(=O)OC(C)(C)C)cc2C(C)C)c(C(C)C)c1 (centres unmarked) [Example 195, [5-tert-Butoxycarbonylamino-5-(3,5-diisopropyl-4-{[(2,4,6-triisopropyl-phenyl)-acetyl]sulfamoyloxy}-phenylcarbamoyl)-pentyl]-carbamic acid tert-butyl ester] | 91.8 |
| CC(=O)Nc1cc(C(C)C)c(OS(=O)(=O)NC(=O)Cc2c(C(C)C)cc(C(C)C)cc2C(C)C)c(C(C)C)c1 [Example 196, [(2,4,6-Triisopropyl-phenyl)-acetyl]-sulfamic acid 4-acetylamino-2,6-diisopropyl-phenyl ester] | 73.1 |
| CC(C)c1cc(C(C)C)c(CC(=O)NS(=O)(=O)Oc2c(C(C)C)cc(NC(=O)CNC(=O)OC(C)(C)C)cc2C(C)C)c(C(C)C)c1 [Example 198, [(3,5-Diisopropyl-4-{[(2,4,6-triisopropyl-phenyl)-acetyl]sulfamoyloxy}-phenylcarbamoyl)-methyl]-carbamic acid tert-butyl ester] | 75.8 |
| CCCCCCCCCCCCOS(=O)(=O)NC(=O)Cc1c(C(C)C)cc(C(C)C)cc1C(C)C [Example 199, [(2,4,6-Triisopropyl-phenyl)-acetyl]-sulfamic acid dodecyl ester] | 50.7 |
| CC(C)c1cc(C(C)C)c(CC(=O)NS(=O)(=O)Oc2c(C(C)C)cc(NC(=O)CN)cc2C(C)C)c(C(C)C)c1 [Example 200, [(2,4,6-Triisopropyl-phenyl)-acetyl]-sulfamic acid 4-(2-amino-acetylamino)-2,6-diisopropyl-phenyl ester] | 72.7 |
| CSCC[C@H](N)C(=O)Nc1cc(C(C)C)c(OS(=O)(=O)NC(=O)Cc2c(C(C)C)cc(C(C)C)cc2C(C)C)c(C(C)C)c1 [Example 201, [2-(2,4,6-Triisopropyl-phenyl)-acetyl]-sulfamic acid 4-((S)-2-amino-4-methylsulfanyl-butyrylamino)-2,6-diisopropyl-phenyl ester] | 87.1 |
| CC(C)c1cc(C(C)(C)O)cc(C(C)C)c1CC(=O)NS(=O)(=O)Oc1c(C(C)C)cccc1C(C)C [Example 202, {[4-(1-Hydroxy-1-methyl-ethyl)-2,6-diisopropyl-phenyl]-acetyl}-sulfamic acid 2,6-diisopropyl-phenyl ester] | 25.4 |
| CC(C)c1cc(C(C)C)c(CC(=O)NS(=O)(=O)Oc2c(C(C)C)cc(Br)cc2C(C)C)c(C(C)C)c1 [Example 203, [(2,4,6-Triisopropyl-phenyl)-acetyl]-sulfamic acid 4-bromo-2,6-diisopropyl-phenyl ester] | 52.2 |
| CC(C)c1cc(C(C)C)c(CC(=O)NS(=O)(=O)Oc2c(C(C)C)cc(NC(=O)C(N)Cc3c[nH]c4ccccc34)cc2C(C)C)c(C(C)C)c1 (centres unmarked) [Example 204, [(2,4,6-Triisopropyl-phenyl)-acetyl]-sulfamic acid 4-[2-amino-3-(1H-indol-3-yl)-propionylamino]-2,6-diisopropyl-phenyl ester] | 70 |
| CC(C)c1cc(C(C)C)c(CC(=O)NS(=O)(=O)Oc2c(C(C)C)cc(OCCCN(C)C)cc2C(C)C)c(C(C)C)c1 [Example 205, [(2,4,6-Triisopropyl-phenyl)-acetyl]-sulfamic acid 4-(3-dimethylamino-propoxy)-2,6-diisopropyl-phenyl ester] | 11.7 |
| CC(C)c1cc(C(C)C)c(CC(=O)NS(=O)(=O)Oc2c(C(C)C)cc(NC(=O)[C@@H](C)N)cc2C(C)C)c(C(C)C)c1 [Example 206, [2-(2,4,6-Triisopropyl-phenyl)-acetyl]-sulfamic acid 4-((R)-2-amino-propionylamino)-2,6-diisopropyl-phenyl ester; compound with trifluoro-acetic acid] | 47.9 |
| CC(C)c1cc(C(C)C)c(CC(=O)NS(=O)(=O)Oc2c(C(C)C)cc(NC(=O)C(C)(C)N)cc2C(C)C)c(C(C)C)c1 [Example 207, [(2,4,6-Triisopropyl-phenyl)-acetyl]-sulfamic acid 4-(2-amino-2-methyl-propionylamino)-2,6-diisopropyl-phenyl ester] | 60.3 |
| CC(C)c1cc(C(C)C)c(CC(=O)NS(=O)(=O)Oc2c(C(C)C)cc(OCCCN)cc2C(C)C)c(C(C)C)c1 [Example 208, [2-(2,4,6-Triisopropyl-phenyl)-acetyl]-sulfamic acid 4-(3-amino-propoxy)-2,6-diisopropyl-phenyl ester] | 22.4 |
| CC(C)c1cc(C(C)C)c(CC(=O)NS(=O)(=O)Oc2c(C(C)C)cc(SC#N)cc2C(C)C)c(C(C)C)c1 [Example 209, [(2,4,6-Triisopropyl-phenyl)-acetyl]-sulfamic acid 2,6-diisopropyl-4-thiocyanato-phenyl ester] | 56.8 |
| Cc1cc(C(C)C)c(OS(=O)(=O)NC(=O)Cc2c(C(C)C)cc(C(C)C)cc2C(C)C)c(C(C)C)c1 [Example 210, [(2,4,6-Triisopropyl-phenyl)-acetyl]-sulfamic acid 2,6-diisopropyl-4-methyl-phenyl ester] | 52.5 |
| CC(C)c1cccc(C(C)C)c1OS(=O)(=O)NC(=O)C1(c2ccc(N(C)C)cc2)CCCC1 [Example 211, [1-(4-Dimethylamino-phenyl)-cyclopentanecarbonyl]-sulfamic acid 2,6-diisopropyl-phenyl ester] | 24.6 |
| CC(C)c1cc(C(C)C)c(CC(=O)NS(=O)(=O)Oc2c(C(C)C)cc(C#N)cc2C(C)C)c(C(C)C)c1 [Example 212, [(2,4,6-Triisopropyl-phenyl)-acetyl]-sulfamic acid 4-cyano-2,6-diisopropyl-phenyl ester] | 60.2 |
| CC(C)c1cccc(C(C)C)c1OS(=O)(=O)NC(=O)C1(c2ccc([N+](=O)[O-])cc2)CCCC1 [Example 213, [1-(4-Nitro-phenyl)-cyclopentanecarbonyl]-sulfamic acid 2,6-diisopropyl-phenyl ester] | 19.7 |
| CSCCC(NC(=O)OC(C)(C)C)C(=O)Nc1cc(C(C)C)c(OS(=O)(=O)NC(=O)Cc2c(C(C)C)cc(C(C)C)cc2C(C)C)c(C(C)C)c1 (centres unmarked) [Example 214, [1-(3,5-Diisopropyl-4-{[(2,4,6-triisopropyl-phenyl)-acetyl]sulfamoyloxy}-phenylcarbamoyl)-3-methylsulfanyl-propyl]-carbamic acid tert-butyl ester] | 71.7 |
| CC(C)c1cc(C(C)C)c(CC(=O)NS(=O)(=O)Oc2c(C(C)C)cc(NC(=O)Nc3c(C(C)C)cccc3C(C)C)cc2C(C)C)c(C(C)C)c1 [Example 215, [(2,4,6-Triisopropyl-phenyl)-acetyl]-sulfamic acid 4-[3-(2,6-diisopropyl-phenyl)-ureido]-2,6-diisopropyl-phenyl ester] | 74.7 |
| CC(C)C[C@H](N)C(=O)Nc1cc(C(C)C)c(OS(=O)(=O)NC(=O)Cc2c(C(C)C)cc(C(C)C)cc2C(C)C)c(C(C)C)c1 [Example 216, [2-(2,4,6-Triisopropyl-phenyl)-acetyl]-sulfamic acid 4-((S)-2-amino-4-methyl-pentanoylamino)-2,6-diisopropyl-phenyl ester; compound with trifluoro-acetic acid] | 65.4 |
| CC(C)c1cc(C(C)C)c(CC(=O)NS(=O)(=O)Oc2c(C(C)C)cc(NC(=O)Nc3ccccc3)cc2C(C)C)c(C(C)C)c1 [Example 218, [(2,4,6-Triisopropyl-phenyl)-acetyl]-sulfamic acid 2,6-diisopropyl-4-(3-phenyl-ureido)-phenyl ester] | < 10 |
| CC(C)c1cc(C(C)C)c(CC(=O)NS(=O)(=O)Oc2c(C(C)C)cc(NC(=O)NC(C)(C)C)cc2C(C)C)c(C(C)C)c1 [Example 219, [(2,4,6-Triisopropyl-phenyl)-acetyl]-sulfamic acid 4-(3-tert-butyl-ureido)-2,6-diisopropyl-phenyl ester] | 15.2 |
